Laboratory results taken from ChEMBL document CHEMBL2406955, “Synthesis and cytotoxic activities of novel hybrid 2-phenyl-3-alkylbenzofuran and imidazole/triazole compounds” (Bioorg Med Chem Lett, 2013).

Columns and labels:
SMMC-7721 = assay: Cytotoxicity against human SMMC7721 cells after 48 hrs by MTT assay; assay type: functional, cell-based; details: SMMC-7721, 48 h
HL-60 = assay: Cytotoxicity against human HL60 cells after 48 hrs by MTT assay; assay type: functional, cell-based; details: HL-60, 48 h
A549 = assay: Cytotoxicity against human A549 cells after 48 hrs by MTT assay; assay type: functional, cell-based; details: A549, 48 h
SW480 [1] = assay: Cytotoxicity against human SW480 cells after 48 hrs by MTT assay; assay type: functional, cell-based; details: SW480, 48 h
MCF7 [2] = assay: Cytotoxicity against human MCF7 cells after 48 hrs by MTT assay; assay type: functional, cell-based; details: MCF7, 48 h
[3] = biological target: Serine/threonine-protein kinase mTOR (Homo sapiens) (UniProt P42345); assay: Inhibition of mTOR (unknown origin) assessed as ratio of cytoplasmic to nuclear level of eukaryotic initiation factor 4E
SW480 [4] = assay: Ratio of cisplatin IC50 to compound IC50 for human SW480 cells; assay type: functional
MCF7 [5] = assay: Ratio of cisplatin IC50 to compound IC50 for human MCF7 cells; assay type: functional

SMILES	IC50 (SMMC-7721) [µM]	IC50 (HL-60) [µM]	IC50 (A549) [µM]	IC50 (SW480 [1]) [µM]	IC50 (MCF7 [2]) [µM]	Ratio [3]	Ratio IC50 (SW480 [4])	Ratio IC50 (MCF7 [5])
O=C(C[n+]1ccn(Cc2c(-c3ccccc3)oc3ccccc23)c1)c1ccc2ccccc2c1	9.42	2.06	14	3.48	3.68			
Brc1ccccc1C[n+]1ccn(Cc2c(-c3ccccc3)oc3ccccc23)c1	6.61	1.86	11.2	10.3	5.58			
O=C(C[n+]1ccn(Cc2c(-c3ccccc3)oc3ccccc23)c1)c1ccc(Br)cc1	17.8	1.57	13.8	3.36	3.65			
O=C(C[n+]1cnn(Cc2c(-c3ccccc3)oc3ccccc23)c1)c1ccc(O)cc1	> 40	> 40	> 40	> 40	> 40			
CCc1n(Cc2c(-c3ccccc3)oc3ccccc23)cc[n+]1CC(=O)c1ccc(O)cc1	13.1	13.2	27.1	> 40	17.4			
O=C(C[n+]1cnn(Cc2c(-c3ccccc3)oc3ccccc23)c1)c1ccccc1	5.76	3.51	13.7	17.1	14.7	1.11		
c1ccc(-c2oc3ccccc3c2Cn2ccnc2)cc1	> 40	> 40	> 40	> 40	> 40			
COc1ccc(C(=O)C[n+]2cnn(Cc3c(-c4ccccc4)oc4ccccc34)c2)cc1	5.76	3.22	13.7	17.2	14.9			
c1ccc(C[n+]2cnn(Cc3c(-c4ccccc4)oc4ccccc34)c2)cc1	> 40	> 40	> 40	> 40	> 40			
CCCC[n+]1cnn(Cc2c(-c3ccccc3)oc3ccccc23)c1	> 40	> 40	> 40	> 40	> 40			
Brc1ccccc1C[n+]1cnn(Cc2c(-c3ccccc3)oc3ccccc23)c1	21.9	9	33.1	18.9	16.3			
O=C(C[n+]1cn(Cc2c(-c3ccccc3)oc3ccccc23)c2ccccc21)c1ccc(O)cc1	20.7	13	34	18.2	16.2			
CO[C@H]1C[C@@H]2CC[C@@H](C)[C@@](O)(O2)C(=O)C(=O)N2CCCC[C@H]2C(=O)O[C@H]([C@H](C)C[C@@H]2CC[C@@H](O)[C@H](OC)C2)CC(=O)[C@H](C)/C=C(\C)[C@@H](O)[C@@H](OC)C(=O)[C@H](C)C[C@H](C)/C=C/C=C/C=C/1C						1.59		
O=C(C[n+]1ccn(Cc2c(-c3ccccc3)oc3ccccc23)c1)c1ccccc1	9.83	2.49	> 40	15.5	15.5			
CCc1n(Cc2c(-c3ccccc3)oc3ccccc23)cc[n+]1CC(=O)c1ccc(Br)cc1	6.07	0.72	12.8	3.58	2.89			
O=C(C[n+]1cn(Cc2c(-c3ccccc3)oc3ccccc23)c2ccccc21)c1ccc(F)cc1	9.41	2.03	11.8	3.29	3.13			
c1ccc(-c2oc3ccccc3c2Cn2cnc3ccccc32)cc1	> 40	> 40	> 40	> 40	> 40			
CCc1n(Cc2c(-c3ccccc3)oc3ccccc23)cc[n+]1Cc1ccccc1Br.[Br-]	0.52	0.08	0.55	0.47	0.51	1.07	40.1	40.8
c1ccc(C[n+]2cn(Cc3c(-c4ccccc4)oc4ccccc34)c3ccccc32)cc1	4.81	1.96	7.09	3.26	3.49	1.54		
